Holding throughout (assay): biochemical
What all share (set-up): KINOMEscan active-site competition binding panel (468 kinase assays), per cent of control at 1000 nM
Conditions in all cases: KINOMEscan per cent of control (binding competition); read-out: Percent Control

In one assay the target is AKT1 (Homo sapiens, UniProt P31749). The text has this: (§1) Figure S7 / Percent Control
For the next assay, the target named is T1, BRK (Homo sapiens, UniProt Q13882).
T1 construct: gene PTK6
Source text: as §1

For a further assay, the target named is CDK9 (Homo sapiens, UniProt P50750).
Sequence of CDK9 (P50750 whole entry): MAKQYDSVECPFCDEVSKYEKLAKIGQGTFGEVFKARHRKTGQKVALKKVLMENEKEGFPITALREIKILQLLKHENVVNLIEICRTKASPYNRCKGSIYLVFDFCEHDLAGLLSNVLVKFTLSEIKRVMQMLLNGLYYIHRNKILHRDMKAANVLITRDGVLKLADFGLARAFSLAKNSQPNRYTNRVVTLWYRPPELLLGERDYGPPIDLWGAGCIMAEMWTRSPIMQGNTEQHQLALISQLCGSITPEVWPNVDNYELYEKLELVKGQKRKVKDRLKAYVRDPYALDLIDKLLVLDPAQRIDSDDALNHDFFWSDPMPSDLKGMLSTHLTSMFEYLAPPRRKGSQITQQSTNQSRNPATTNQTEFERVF
Source text: as §1

For another assay, the target named is DYRK1A (Homo sapiens, UniProt Q13627).
Source text: as §1

The next assay deals with EGFR(G719S) (Homo sapiens, UniProt P00533, G719S).
Source text: as §1

The next assay has as its target EGFR(L747-T751del,Sins) (Homo sapiens, UniProt P00533, DEL747-750/T751S).
Source text: as §1

The target of a further assay is EGFR(L858R) (Homo sapiens, UniProt P00533, L858R).
Source text: as §1

A further assay concerns the target EPHB1 (Homo sapiens, UniProt P54762).
Source text: as §1

The target in a further assay is EPHB6 (Homo sapiens, UniProt O15197).
Source text: as §1

For another assay, the target named is ERBB4 (Homo sapiens, UniProt Q15303).
Source text: as §1

The target in a further assay is HIPK3 (Homo sapiens, UniProt Q9H422).
Source text: as §1

A further assay deals with IRAK3 (Homo sapiens, UniProt Q9Y616).
Source text: as §1

The next assay addresses ITK (Homo sapiens, UniProt Q08881).
Source text: as §1

Assay [1] concerns the target T2, JAK1(JH2domain-pseudokinase) (Homo sapiens, UniProt P23458).
T2 construct: JH2domain-pseudokinase
Source text: as §1

A further assay concerns the target MTOR (Homo sapiens, UniProt P42345).
Source text: as §1

Another assay addresses MYO3A (Homo sapiens, UniProt Q8NEV4).
Source text: as §1

The next assay concerns the target NLK (Homo sapiens, UniProt Q9UBE8).
Source text: as §1

Another assay deals with RET (Homo sapiens, UniProt P07949).
Source text: as §1

Assay [2] deals with T3, RSK4(Kin.Dom.1-N-terminal) (Homo sapiens, UniProt Q9UK32).
T3 construct: gene RPS6KA6; Kin.Dom.1-N-terminal
T3 sequence (Q9UK32 whole entry): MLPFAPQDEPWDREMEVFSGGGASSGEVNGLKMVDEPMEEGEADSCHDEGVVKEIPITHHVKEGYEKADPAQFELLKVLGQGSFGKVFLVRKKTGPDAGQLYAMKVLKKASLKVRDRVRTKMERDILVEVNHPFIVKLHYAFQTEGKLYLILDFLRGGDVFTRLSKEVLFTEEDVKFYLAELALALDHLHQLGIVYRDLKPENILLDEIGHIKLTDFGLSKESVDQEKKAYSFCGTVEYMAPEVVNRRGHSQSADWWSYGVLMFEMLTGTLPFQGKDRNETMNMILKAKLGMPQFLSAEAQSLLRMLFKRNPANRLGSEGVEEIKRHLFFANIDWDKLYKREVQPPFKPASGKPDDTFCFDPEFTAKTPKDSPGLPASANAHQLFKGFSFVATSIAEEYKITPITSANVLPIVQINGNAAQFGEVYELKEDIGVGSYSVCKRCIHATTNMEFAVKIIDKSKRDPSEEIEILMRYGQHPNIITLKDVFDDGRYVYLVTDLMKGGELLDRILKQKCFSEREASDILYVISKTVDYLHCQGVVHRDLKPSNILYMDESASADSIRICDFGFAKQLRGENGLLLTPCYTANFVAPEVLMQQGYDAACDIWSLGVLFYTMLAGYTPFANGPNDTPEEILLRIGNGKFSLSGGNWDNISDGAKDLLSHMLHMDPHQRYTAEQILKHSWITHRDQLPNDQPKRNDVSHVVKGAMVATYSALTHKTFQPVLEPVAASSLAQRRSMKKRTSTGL
Source text: as §1

A further assay addresses SGK2 (Homo sapiens, UniProt Q9HBY8).
Source text: as §1

A further assay has as its target TAOK1 (Homo sapiens, UniProt Q7L7X3).
Source text: as §1

For a further assay, the target named is TNIK (Homo sapiens, UniProt Q9UKE5).
Source text: as §1

Assay [3] has as its target T4, TYK2(JH2domain-pseudokinase) (Homo sapiens, UniProt P29597).
T4 construct: JH2domain-pseudokinase
Source text: as §1

The next assay concerns the target WNK3 (Homo sapiens, UniProt Q9BYP7).
Source text: as §1

Sequence of MYO3A (Q8NEV4 whole entry): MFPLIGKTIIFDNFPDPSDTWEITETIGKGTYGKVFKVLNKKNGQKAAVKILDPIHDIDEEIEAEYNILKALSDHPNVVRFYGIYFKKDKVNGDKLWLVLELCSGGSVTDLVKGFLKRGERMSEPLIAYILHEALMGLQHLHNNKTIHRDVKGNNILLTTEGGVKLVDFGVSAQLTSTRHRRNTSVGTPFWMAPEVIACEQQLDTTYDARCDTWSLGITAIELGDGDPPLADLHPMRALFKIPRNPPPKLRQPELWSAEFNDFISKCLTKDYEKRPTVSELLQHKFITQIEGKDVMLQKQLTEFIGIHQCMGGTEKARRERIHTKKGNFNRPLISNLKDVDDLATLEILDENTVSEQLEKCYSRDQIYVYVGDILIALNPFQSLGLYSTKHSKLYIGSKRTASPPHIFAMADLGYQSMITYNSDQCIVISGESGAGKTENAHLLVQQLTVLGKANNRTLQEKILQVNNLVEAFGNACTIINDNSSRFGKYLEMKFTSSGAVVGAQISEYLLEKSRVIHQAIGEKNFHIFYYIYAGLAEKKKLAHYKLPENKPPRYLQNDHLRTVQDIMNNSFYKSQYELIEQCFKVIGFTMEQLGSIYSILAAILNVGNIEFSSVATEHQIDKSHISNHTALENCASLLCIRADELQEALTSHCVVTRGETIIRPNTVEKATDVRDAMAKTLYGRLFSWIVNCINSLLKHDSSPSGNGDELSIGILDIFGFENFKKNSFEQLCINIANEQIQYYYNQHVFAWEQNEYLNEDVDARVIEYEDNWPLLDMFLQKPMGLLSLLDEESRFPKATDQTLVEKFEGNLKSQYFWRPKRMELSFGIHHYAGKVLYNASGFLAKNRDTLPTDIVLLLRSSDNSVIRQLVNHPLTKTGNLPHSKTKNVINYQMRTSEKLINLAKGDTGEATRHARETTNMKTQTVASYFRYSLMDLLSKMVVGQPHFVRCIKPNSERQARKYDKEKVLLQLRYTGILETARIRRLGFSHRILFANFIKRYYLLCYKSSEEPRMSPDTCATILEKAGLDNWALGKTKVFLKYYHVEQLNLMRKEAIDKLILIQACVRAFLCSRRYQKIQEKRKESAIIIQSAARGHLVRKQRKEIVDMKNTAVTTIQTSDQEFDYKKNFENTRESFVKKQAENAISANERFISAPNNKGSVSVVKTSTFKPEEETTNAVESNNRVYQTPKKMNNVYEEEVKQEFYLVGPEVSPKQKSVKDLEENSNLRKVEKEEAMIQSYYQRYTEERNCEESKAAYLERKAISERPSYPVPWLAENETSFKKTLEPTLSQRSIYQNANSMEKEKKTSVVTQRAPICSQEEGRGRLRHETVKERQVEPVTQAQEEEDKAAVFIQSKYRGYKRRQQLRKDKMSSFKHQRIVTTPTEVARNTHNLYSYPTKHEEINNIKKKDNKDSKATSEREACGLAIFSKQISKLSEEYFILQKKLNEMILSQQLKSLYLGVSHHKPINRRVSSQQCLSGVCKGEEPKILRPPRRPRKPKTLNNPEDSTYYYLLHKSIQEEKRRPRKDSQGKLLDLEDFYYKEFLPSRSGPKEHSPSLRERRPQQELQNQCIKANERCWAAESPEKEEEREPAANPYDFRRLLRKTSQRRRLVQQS
T4 sequence (P29597 whole entry): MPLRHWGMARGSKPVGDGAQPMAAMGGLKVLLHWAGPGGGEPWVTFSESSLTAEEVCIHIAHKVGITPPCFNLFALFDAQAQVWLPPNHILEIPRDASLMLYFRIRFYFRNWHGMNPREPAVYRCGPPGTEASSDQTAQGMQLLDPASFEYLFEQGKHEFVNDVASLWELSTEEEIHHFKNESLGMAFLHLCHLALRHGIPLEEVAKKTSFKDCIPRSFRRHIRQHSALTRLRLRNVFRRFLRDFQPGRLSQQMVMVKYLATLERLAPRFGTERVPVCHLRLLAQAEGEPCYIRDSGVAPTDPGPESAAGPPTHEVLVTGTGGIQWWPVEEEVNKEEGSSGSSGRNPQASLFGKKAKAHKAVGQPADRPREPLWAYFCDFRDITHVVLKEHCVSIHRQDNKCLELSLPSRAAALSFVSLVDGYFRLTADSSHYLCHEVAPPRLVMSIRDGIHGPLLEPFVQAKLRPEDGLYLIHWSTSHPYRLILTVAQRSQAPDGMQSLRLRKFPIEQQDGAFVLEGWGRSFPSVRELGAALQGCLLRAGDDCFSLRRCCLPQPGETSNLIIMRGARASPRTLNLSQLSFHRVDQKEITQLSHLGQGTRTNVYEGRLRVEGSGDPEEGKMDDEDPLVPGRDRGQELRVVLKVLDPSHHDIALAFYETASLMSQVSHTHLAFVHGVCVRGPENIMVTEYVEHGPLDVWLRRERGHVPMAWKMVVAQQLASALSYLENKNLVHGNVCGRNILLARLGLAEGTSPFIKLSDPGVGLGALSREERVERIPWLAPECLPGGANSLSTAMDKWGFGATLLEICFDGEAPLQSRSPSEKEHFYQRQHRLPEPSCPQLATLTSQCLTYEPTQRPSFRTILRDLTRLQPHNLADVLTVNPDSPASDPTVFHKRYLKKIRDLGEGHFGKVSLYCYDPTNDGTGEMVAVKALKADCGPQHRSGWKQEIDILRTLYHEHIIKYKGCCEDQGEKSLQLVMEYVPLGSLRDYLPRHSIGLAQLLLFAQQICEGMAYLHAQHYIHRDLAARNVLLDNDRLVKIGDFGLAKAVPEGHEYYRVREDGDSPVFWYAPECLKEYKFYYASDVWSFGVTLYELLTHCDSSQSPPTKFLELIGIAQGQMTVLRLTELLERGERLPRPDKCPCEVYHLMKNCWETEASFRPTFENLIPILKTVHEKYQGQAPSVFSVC
Sequence of EGFR(L747-T751del,Sins) (P00533 with tags, fused parts or gaps DEL747-750/T751S): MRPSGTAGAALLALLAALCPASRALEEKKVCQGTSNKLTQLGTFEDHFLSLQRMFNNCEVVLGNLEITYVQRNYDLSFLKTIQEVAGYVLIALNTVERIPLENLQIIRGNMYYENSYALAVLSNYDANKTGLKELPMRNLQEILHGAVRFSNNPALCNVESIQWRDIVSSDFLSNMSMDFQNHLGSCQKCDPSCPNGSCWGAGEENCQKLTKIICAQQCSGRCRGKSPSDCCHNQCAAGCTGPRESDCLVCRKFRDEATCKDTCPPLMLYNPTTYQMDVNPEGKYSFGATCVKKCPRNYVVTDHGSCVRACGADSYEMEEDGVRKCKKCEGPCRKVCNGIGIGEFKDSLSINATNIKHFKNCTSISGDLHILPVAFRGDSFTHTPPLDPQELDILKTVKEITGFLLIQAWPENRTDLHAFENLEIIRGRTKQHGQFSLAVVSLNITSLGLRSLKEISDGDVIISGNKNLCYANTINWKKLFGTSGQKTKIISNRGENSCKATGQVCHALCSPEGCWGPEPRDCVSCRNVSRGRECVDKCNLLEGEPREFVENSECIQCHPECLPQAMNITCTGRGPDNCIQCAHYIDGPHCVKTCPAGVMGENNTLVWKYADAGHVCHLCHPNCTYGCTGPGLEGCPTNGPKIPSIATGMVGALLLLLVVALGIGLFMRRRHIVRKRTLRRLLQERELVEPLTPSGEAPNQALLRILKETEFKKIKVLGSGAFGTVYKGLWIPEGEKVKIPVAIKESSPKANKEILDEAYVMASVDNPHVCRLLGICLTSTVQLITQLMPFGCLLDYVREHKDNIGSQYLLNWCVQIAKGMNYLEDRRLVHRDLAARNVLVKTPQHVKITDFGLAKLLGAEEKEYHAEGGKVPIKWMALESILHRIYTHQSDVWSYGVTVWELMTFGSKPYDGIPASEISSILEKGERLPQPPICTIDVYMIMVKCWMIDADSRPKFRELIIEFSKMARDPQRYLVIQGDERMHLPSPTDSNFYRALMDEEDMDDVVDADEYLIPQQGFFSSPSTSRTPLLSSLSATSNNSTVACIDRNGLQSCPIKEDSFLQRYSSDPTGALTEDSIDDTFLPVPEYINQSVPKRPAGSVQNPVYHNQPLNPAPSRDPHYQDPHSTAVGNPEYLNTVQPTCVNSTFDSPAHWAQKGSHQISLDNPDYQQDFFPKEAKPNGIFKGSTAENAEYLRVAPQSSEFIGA

For the molecule `Cn1c(=O)[nH]c2ccc(-c3cccc(C(=O)NC4CCn5ccnc5C4)c3)cc21` (stereo not drawn) [Z36-MP5], the remaining binding at 1 µM amounted to 95% on AKT1; 100% at BRK; 37% on CDK9; 60% at DYRK1A; 85% on EGFR(G719S); 84% on EGFR(L747-T751del,Sins). Moreover, the remaining binding at 1 µM on EGFR(L858R) came to 99%; on EPHB1, 89%; on EPHB6, 81%; at ERBB4, 96%; on HIPK3 it was 61%; at IRAK3 it was 99%. Also, the remaining binding at 1 µM at ITK was found to be 96%; in assay [1], 51%; on MTOR, 87%; on MYO3A, 100%; on NLK it was 59%; at RET, 67%. Also, the remaining binding at 1 µM in assay [2] came to 36%; on SGK2, 64%; at TAOK1, 100%; at TNIK, 98%; in assay [3], 79%; on WNK3, 69%.

The values above are taken from paper PMC10924921, “Mi-2β promotes immune evasion in melanoma by activating EZH2 methylation” (Nature Communications, 2024).
